Each structure is given as a SMILES string.

The species entered for one test is Homo sapiens. The experiment in a line: Compound was evaluated for inhibition of tumor cell growth using sulforhodamine-B assay in human BSY-1 cell. The test is classed as functional. A general note: The SRB assay estimates cell density from bound dye.
Test [1] is described as follows: Compound was evaluated for vincristine accumulation in ovarian MDR cancer cells (2780AD) at a concentration of 1.0 ug/mL. The test is classed as functional, Homo sapiens.
Test [2] can be described thus: Compound was evaluated for vincristine accumulation in ovarian MDR cancer cells (2780AD) at a concentration of 10 ug/mL. The format is functional, Homo sapiens.
Test [3] can be described thus: Compound was evaluated for inhibition of tumor cell growth using sulforhodamine-B assay in 38 human cell lines. The test is classed as functional.
A further test has as its system P388. In words: Compound was evaluated for inhibition of tumor cell growth using sulforhodamine-B assay in mouse […] p338 cell line. The test is classed as functional.

What is called GI50 is the concentration that inhibits growth by half. In turn, `CC1=C2[C@@H](Sc3ccccc3)[C@H](OCCO)C3=C([C@H](OCc4ccccc4)[C@](O)(C[C@@H]1OC(=O)[C@H](O)[C@@H](NCc1ccccc1)c1ccccc1)C2(C)C)[C@@](C)(O)CCC3` displayed a GI50 in the test filed under Homo sapiens of 9.5 µM. Besides, the Control is reported as 151% in test [1] and 217% in test [2].
On to `CC(=O)O[C@@]1(C)CCCC2=C1[C@H](OCc1ccccc1)[C@]1(O)C[C@H](OC(=O)[C@H](O)[C@@H](NCc3ccccc3)c3ccccc3)C(C)=C([C@@H](Sc3ccccc3)[C@@H]2OCCO)C1(C)C`, for which the concentration for 50% growth inhibition (GI50) (in test [3]; with P388) was 10 µM throughout. Also, the Control in test [1] was found to be 80%; in test [2], 102%.

The values above are taken from ChEMBL document CHEMBL1130645, “Synthesis and evaluation of artificial taxoids with antitumor and multi-drug resistance reversing activities” (1998).
